{
  "source": "patent US5276170A",
  "about": "“Azido-substituted aromatic amino acids” (The United States of America as represented by the …, priority 1992, dated 1994)",
  "key": {"PC12 cells [1]": {"tested_on": "PC12 cells", "assay": "Effect on PC12 cell growth ([3H]thymidine and [3H]leucine incorporation over 5 days)", "type": "cell-based", "details": "presence and absence of NGF", "description": "Cell growth was estimated both visually and by the incorporation of [^3 H]thymidine and [^3 H]leucine over a period of 5 days in the presence and absence of nerve growth factor, 50 nanogm/well (NGF-7S was obtained from Boehringer Mannheim Biochemicals, Indianapolis, Ind.; labeled amino acids and thymidine were obtained from New England Nuclear, Boston, Mass.). On day one, compound 1 was added in concentrations ranging from 0.005 to 1.5 mM. Less than 10% inhibition in isotope-incorporation was observed between control and cultures over the five day period."}, "PC12 cells [2]": {"tested_on": "PC12 cells", "assay": "Incorporation of tyrosine, leucine and thymidine into PC12 cells", "type": "cell-based", "details": "for inhibition at 1000 µM: Rattus norvegicus", "description": "The incorporation (2 μCi/well) of [^14 CU]tyrosine, [^3 H]thymidine were measured in the presence and absence of 2-azidotyrosine (1.0 mM) over a period of 72 hours. PC12 cells were grown as monolayers in 150 cm^2 tissue culture flasks at 37° C. in 6% CO2 in Dulbecco's modified Eagle's medium supplemented with 7% fetal bovine serum, 7% horse serum, and 100 μg streptomycin and 100 units of penicillin per ml. The cells were split after 3 days and aliquots (2 ml) transferred to 6 well culture plates. 2-Azidotyrosine (final concentration, 1 mM), [^14 CU] tyrosine (2 μCi/well), [^3 H]leucine (2 μCi/well), and [^3 H]thymidine (2 μCi/well) were added in 0.5 ml solutions in cell media. The final volume of each well was adjusted to 3.0 ml. The cultures were incubated in the dark at 37° C. in 6% CO2 for 12, 24, 48 and 72 hrs. Cells were removed and transferred to conical tubes (10 ml), sedimented by centrifugation, and washed 3X with phosphate buffered saline, pH 7.2. The cell sediment was dissolved in 0.5 ml of a solution of 0.5N NAOH containing 1% SDS over a period of 30 min., neutralized with 0.5 ml 0.5N HCl, and the isotope content measured by scintillation spectrometry. The results are expressed at the mean±SEM for 3 wells for each set of conditions."}, "tyrosine phenol-lyase": {"biological_target": "tyrosine phenol-lyase (Citrobacter freundii, UniProt P31013)", "sequence (P31013 whole entry, species assumed)": "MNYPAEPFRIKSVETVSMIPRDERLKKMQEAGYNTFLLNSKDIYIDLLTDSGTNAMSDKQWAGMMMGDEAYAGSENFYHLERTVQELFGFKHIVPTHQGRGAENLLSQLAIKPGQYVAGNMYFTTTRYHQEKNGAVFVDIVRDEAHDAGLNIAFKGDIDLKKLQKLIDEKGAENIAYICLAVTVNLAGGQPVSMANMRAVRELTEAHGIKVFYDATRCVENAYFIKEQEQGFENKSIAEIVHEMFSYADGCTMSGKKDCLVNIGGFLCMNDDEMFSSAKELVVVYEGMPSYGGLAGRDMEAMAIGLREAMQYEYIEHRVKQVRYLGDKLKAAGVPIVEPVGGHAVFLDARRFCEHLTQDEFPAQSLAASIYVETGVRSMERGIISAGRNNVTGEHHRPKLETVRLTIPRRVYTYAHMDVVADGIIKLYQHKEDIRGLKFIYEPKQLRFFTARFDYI", "assay": "Tyrosine phenol-lyase catalyzed hydrolytic cleavage to ammonium pyruvate and 3-azidophenol", "type": "biochemical", "details": "as substrate; % of Vmax of L-tyrosine"}, "[3]": {"tested_on": "mushroom tyrosinase (sigma)", "assay": "Mushroom tyrosinase oxidation (UV/visible spectra; dopaquinone production at 480 nm)", "type": "biochemical", "text": "Thus, compound 1 is apparently able to bind strongly to mushroom tyrosinase."}},
  "note": "Like-named read-outs stand apart in the source and are kept apart here.",
  "data": [
    {"smiles": "[N-]=[N+]=Nc1cc(O)ccc1C[C@H](N)C(=O)O", "note": "[compound 1, 2-azido-L-tyrosine]", "values": [
      {"measurement": "inhibition in isotope-incorporation", "setting": "PC12 cells [1]; 0.005 to 1.5 mM, [3H]thymidine and [3H]leucine, five day period", "result": "Less than 10%"},
      {"measurement": "growth of PC12 cells", "setting": "PC12 cells [1]; maximum concentration 1.5 mM, 5 days", "result": "did not significantly inhibit"},
      {"measurement": "incorporation of [3H]leucine", "setting": "PC12 cells [2]; 1.0 mM, up to 72 hrs", "result": "not significantly different from control"},
      {"measurement": "inhibition at 1000 µM", "setting": "PC12 cells [2]; PC-12, 1.0 mM, 24 hours, read-out: inhibition of [3H]thymidine incorporation", "result": 34, "unit": "%"},
      {"measurement": "inhibition at 1000 µM", "setting": "PC12 cells [2]; PC-12, 1.0 mM, 72 hours, read-out: inhibition of [3H]thymidine incorporation", "result": 24, "unit": "%"},
      {"measurement": "inhibition at 1000 µM", "setting": "PC12 cells [2]; PC-12, 24 h, 1.0 mM, 24 hrs, compared to untreated controls, read-out: inhibition of [14CU]tyrosine incorporation", "result": "~58", "unit": "%"},
      {"measurement": "inhibition at 1000 µM", "setting": "PC12 cells [2]; PC-12, 72 h, 1.0 mM, 72 hrs, compared to untreated controls, read-out: inhibition of [14CU]tyrosine incorporation", "result": "~38", "unit": "%"},
      {"measurement": "Vmax (relative to that of L-tyrosine)", "setting": "tyrosine phenol-lyase", "result": 18, "unit": "%"},
      {"measurement": "lag period before oxidation of L-tyrosine", "setting": "[3]; 0.1 mM, equimolar L-tyrosine, dopaquinone at 480 nm", "result": "much longer lag periods"},
      {"measurement": "hydroxylation by mushroom tyrosinase", "setting": "[3]; extensive incubation, UV and visible absorption spectra", "result": "not hydroxylated"},
      {"measurement": "binding to mushroom tyrosinase", "setting": "[3]; inferred from lag period", "result": "bind strongly"}
    ]}
  ]
}
